From paper PMC5515891 (Scientific Reports, 2017)

These compounds were tested against Opc (Neisseria meningitidis, UniProt Q7DDI3). Settings: Opc+ outer membrane preparation (4 mg/ml, PBS) in cell, 100 µM glycan in syringe; Opc- preparation and PBS controls subtracted.
Type: binding

Chain of Opc (Q7DDI3 20-272 limits assumed): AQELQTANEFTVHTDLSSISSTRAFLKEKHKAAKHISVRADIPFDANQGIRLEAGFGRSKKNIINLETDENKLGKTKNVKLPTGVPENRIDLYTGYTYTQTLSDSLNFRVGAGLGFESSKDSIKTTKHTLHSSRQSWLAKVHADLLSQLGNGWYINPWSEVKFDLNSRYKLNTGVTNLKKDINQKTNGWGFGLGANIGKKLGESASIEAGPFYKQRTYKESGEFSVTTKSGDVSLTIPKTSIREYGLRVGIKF

Compound | Kd
CC(=O)N[C@H]1[C@H]([C@H](O)[C@H](O)CO)O[C@@](OC[C@H]2O[C@@H](O[C@H]3[C@H](O)[C@@H](O)C(O)O[C@@H]3CO)[C@H](O)[C@@H](O)[C@H]2O)(C(=O)O)C[C@@H]1O (stereo partly drawn) [11B, Neu5Acα2-6Galβ1-4Glc] | 0.713 ± 0.14 µM
C[C@@H]1O[C@@H](O[C@H]2C(O)O[C@H](CO)[C@H](O)[C@@H]2O)[C@@H](O)[C@H](O)[C@@H]1O (stereo partly drawn) [compound 71, Fucα1-2Galβ] | 2.95 ± 0.59 µM
CC(=O)N[C@H]1[C@H](O[C@H]2[C@@H](O)[C@@H](CO)O[C@@H](O[C@H]3[C@H](O)[C@@H](O)C(O)O[C@@H]3CO)[C@@H]2O)O[C@H](CO)[C@@H](O[C@@H]2O[C@H](CO)[C@H](O)[C@H](O)[C@H]2O)[C@@H]1O (stereo partly drawn) [compound 383, Galβ1-4GlcNAcβ1-3Galβ1-4Glcβ] | 1.77 ± 0.69 µM
